# Test results taken from US9850256B2, “Antibacterial basic biaromatic derivatives with aminoalkoxy substitution” (priority 2014, dated 2017).
# Legend:
# Test in all cases: Bacterial growth minimal inhibitory concentration (microdilution, cation-adjusted Mueller-Hinton Broth)
# [1] = test system: S. aureus A798; format: cell-based, Staphylococcus aureus; conditions: multiply-resistant strain (methicillin- and quinolone-resistant); for MIC: Staphylococcus aureus, A798
# Experimental: (§1) Minimal Inhibitory Concentrations (MICs; mg/L) were determined in cation-adjusted Mueller-Hinton Broth by a microdilution method following the description given in “Methods for Dilution Antimicrobial Susceptibility Tests for Bacteria that Grow Aerobically”, Approved standard, 7th ed., Clinical and Laboratory Standards Institute (CLSI) Document M7-A7, Wayne, Pa., USA (2006).
# (§2) All Example compounds were tested against several Gram positive and Gram negative bacteria. […] Staphylococcus aureus A798 is a multiply-resistant strain (methicillin- and quinolone-resistant), Klebsiella pneumoniae T6474 is a multiply-resistant strain (penicillin-, cephalosporin- and in particular quinolone-resistant), while E. coli ATCC25922 and Pseudomonas aeruginosa ATCC 27853 are quinolone-sensitive strains.
# [2] = test system: E. coli ATCC25922; format: cell-based; conditions: quinolone-sensitive strain; for MIC: Escherichia coli, ATCC25922
# Experimental: as §1, §2
# [3] = test system: K. pneumoniae T6474; format: cell-based, Klebsiella pneumoniae; conditions: multiply-resistant strain (penicillin-, cephalosporin- and quinolone-resistant); for MIC: Klebsiella pneumoniae, T6474
# Experimental: as §1, §2
# [4] = test system: P. aeruginosa ATCC 27853; format: cell-based, Pseudomonas aeruginosa; conditions: quinolone-sensitive strain; for MIC: Pseudomonas aeruginosa, ATCC27853
# Experimental: as §1, §2
SMILES,MIC [1],MIC [2],MIC [3],MIC [4],MIC for S. aureus A798 [1],MIC for E. coli ATCC25922 [2],MIC for K. pneumoniae T6474 [3],MIC for P. aeruginosa ATCC 27853 [4]
"NCCOc1cccc(-c2cccc(CNCC[C@@H]3CN(c4ccc5c(c4)NC(=O)CS5)C(=O)O3)c2)n1 [Example 22, 6-[(R)-5-(2-{3-[6-(2-amino-ethoxy)-pyridin-2-yl]-benzylamino}-ethyl)-2-oxo-oxazolidin-3-yl]-4H-benzo[1,4]thiazin-3-one]",0.5 µg/mL,0.5 µg/mL,2 µg/mL,0.5 µg/mL,,,,
"O=C1COc2ccc(N3C[C@H](CCNCc4cccc(-c5cccc(OCCN6CCOCC6)n5)c4)OC3=O)nc2N1 [Example 23, 6-[(S)-5-(2-{3-[6-(2-morpholin-4-yl-ethoxy)-pyridin-2-yl]-benzylamino}-ethyl)-2-oxo-oxazolidin-3-yl]-4H-pyrido[3,2-b][1,4]oxazin-3-one]",0.125 µg/mL,4 µg/mL,8 µg/mL,8 µg/mL,,,,
"O=C1COc2ccc(N3C[C@H](CCNCc4cccc(-c5cccc(OC[C@@H]6CCN6)c5)c4)OC3=O)nc2N1 [Example $101, 6-[(S)-5-(2-{[3′-((S)-1-azetidin-2-ylmethoxy)-biphenyl-3-ylmethyl]-amino}-ethyl)-2-oxo-oxazolidin-3-yl]-4H-pyrido[3,2-b][1,4]oxazin-3-one]",2 µg/mL,1 µg/mL,2 µg/mL,1 µg/mL,,,,
"O=C1COc2ccc(N3C[C@H](CCNCc4cccc(-c5cccc(OC[C@@H]6CCCN6)c5)c4)OC3=O)nc2N1 [Example $102, 6-((S)-2-oxo-5-(2-(((3′-(((S)-pyrrolidin-2-yl)methoxy)-[1,1′-biphenyl]-3-yl)methyl)amino)ethyl)oxazolidin-3-yl)-2H-pyrido[3,2-b][1,4]oxazin-3(4H)-one]",2 µg/mL,1 µg/mL,2 µg/mL,2 µg/mL,,,,
"CN1CC[C@H]1COc1cccc(-c2cccc(CNCC[C@H]3CN(c4ccc5c(n4)NC(=O)CO5)C(=O)O3)c2)c1 [Example $104, 6-[(S)-5-(2-{[3′-((S)-1-methyl-azetidin-2-ylmethoxy)-biphenyl-3-ylmethyl]-amino}-ethyl)-2-oxo-oxazolidin-3-yl]-4H-pyrido[3,2-b][1,4]oxazin-3-one]",1 µg/mL,2 µg/mL,4 µg/mL,4 µg/mL,,,,
"O=C1COc2ccc(N3C[C@H](CCNCc4cccc(-c5cccc(OC6CNC6)c5)c4)OC3=O)nc2N1 [Example $105, 6-[(S)-5-(2-{[3′-(azetidin-3-yloxy)-biphenyl-3-ylmethyl]-amino}-ethyl)-2-oxo-oxazolidin-3-yl]-4H-pyrido[3,2-b][1,4]oxazin-3-one]",2 µg/mL,2 µg/mL,2 µg/mL,2 µg/mL,,,,
"O=C1COc2ccc(N3C[C@H](CCNCc4cccc(-c5cccc(OCC6CNC6)n5)c4)OC3=O)nc2N1 [Example $106, 6-[(S)-5-(2-{3-[6-(azetidin-3-ylmethoxy)-pyridin-2-yl]-benzylamino}-ethyl)-2-oxo-oxazolidin-3-yl]-4H-pyrido[3,2-b][1,4]oxazin-3-one]",2 µg/mL,2 µg/mL,4 µg/mL,1 µg/mL,,,,
"O=C1COc2ccc(N3C[C@H](CCNCc4cccc(-c5cccc(OC6CNC6)n5)c4)OC3=O)nc2N1 [Example $107, 6-[(S)-5-(2-{3-[6-(azetidin-3-yloxy)-pyridin-2-yl]-benzylamino}-ethyl)-2-oxo-oxazolidin-3-yl]-4H-pyrido[3,2-b][1,4]oxazin-3-one]",1 µg/mL,0.5 µg/mL,2 µg/mL,0.5 µg/mL,,,,
"O=C1COc2ccc(N3C[C@H](CCNCc4cccc(-c5cccc(OC[C@@H]6CCN6)n5)c4)OC3=O)nc2N1.O=CO [Example $108, 6-[(S)-5-(2-{3-[6-((S)-1-azetidin-2-ylmethoxy)-pyridin-2-yl]-benzylamino}-ethyl)-2-oxo-oxazolidin-3-yl]-4H-pyrido[3,2-b][1,4]oxazin-3-oneformate]",,,,,2 µg/mL,1 µg/mL,2 µg/mL,0.5 µg/mL
"CN1CC(COc2cccc(-c3cccc(CNCC[C@H]4CN(c5ccc6c(n5)NC(=O)CO6)C(=O)O4)c3)n2)C1 [Example $113, 6-[(S)-5-(2-{3-[6-(1-methyl-azetidin-3-ylmethoxy)-pyridin-2-yl]-benzylamino}-ethyl)-2-oxo-oxazolidin-3-yl]-4H-pyrido[3,2-b][1,4]oxazin-3-one]",0.5 µg/mL,2 µg/mL,2 µg/mL,2 µg/mL,,,,
"O=C1COc2ccc(N3C[C@H](CCNCc4cccc(-c5cc(OC6CNC6)cnn5)c4)OC3=O)nc2N1 [Example $114, 6-[(S)-5-(2-{3-[5-(azetidin-3-yloxy)-pyridazin-3-yl]-benzylamino}-ethyl)-2-oxo-oxazolidin-3-yl]-4H-pyrido[3,2-b][1,4]oxazin-3-one]",16 µg/mL,4 µg/mL,8 µg/mL,1 µg/mL,,,,
"O=C1COc2ccc(N3C[C@H](CCNCc4cccc(-c5nccc(O[C@@H]6CCNC6)n5)c4)OC3=O)nc2N1 [Example $115, 6-[(S)-2-oxo-5-(2-{3-[4-((R)-pyrrolidin-3-yloxy)-pyrimidin-2-yl]-benzylamino}-ethyl)-oxazolidin-3-yl]-4H-pyrido[3,2-b][1,4]oxazin-3-one]",4 µg/mL,4 µg/mL,16 µg/mL,2 µg/mL,,,,
"O=C1COc2ccc(N3C[C@H](CCNCc4cccc(-c5cc(O[C@@H]6CCNC6)ncn5)c4)OC3=O)nc2N1 [Example $116, 6-[(S)-2-oxo-5-(2-{3-[6-((R)-pyrrolidin-3-yloxy)-pyrimidin-4-yl]-benzylamino}-ethyl)-oxazolidin-3-yl]-4H-pyrido[3,2-b][1,4]oxazin-3-one]",4 µg/mL,2 µg/mL,8 µg/mL,2 µg/mL,,,,

# Now from value to compound:
MIC [1],MIC [2],MIC [3],MIC [4],MIC for S. aureus A798 [1],MIC for E. coli ATCC25922 [2],MIC for K. pneumoniae T6474 [3],MIC for P. aeruginosa ATCC 27853 [4],SMILES
2 µg/mL,1 µg/mL,2 µg/mL,1 µg/mL,,,,,"O=C1COc2ccc(N3C[C@H](CCNCc4cccc(-c5cccc(O[C@@H]6CCNC6)n5)c4)OC3=O)nc2N1 [Example $118, 6-[(S)-2-oxo-5-(2-{3-[6-((R)-pyrrolidin-3-yloxy)-pyridin-2-yl]-benzylamino}-ethyl)-oxazolidin-3-yl]-4H-pyrido[3,2-b][1,4]oxazin-3-one]"
0.5 µg/mL,1 µg/mL,1 µg/mL,0.5 µg/mL,,,,,"O=C1COc2ccc(N3C[C@H](CCNCc4cccc(-c5cccc(O[C@H]6CCNC6)n5)c4)OC3=O)nc2N1 [Example $119, 6-[(S)-2-oxo-5-(2-{3-[6-((S)-pyrrolidin-3-yloxy)-pyridin-2-yl]-benzylamino}-ethyl)-oxazolidin-3-yl]-4H-pyrido[3,2-b][1,4]oxazin-3-one]"
0.5 µg/mL,1 µg/mL,2 µg/mL,2 µg/mL,,,,,"CN1CC[C@@H](Oc2cccc(-c3cccc(CNCC[C@H]4CN(c5ccc6c(n5)NC(=O)CO6)C(=O)O4)c3)n2)C1 [Example $120, 6-[(S)-5-(2-{3-[6-((R)-1-methyl-pyrrolidin-3-yloxy)-pyridin-2-yl]-benzylamino}-ethyl)-2-oxo-oxazolidin-3-yl]-4H-pyrido[3,2-b][1,4]oxazin-3-one]"
0.25 µg/mL,0.5 µg/mL,0.5 µg/mL,1 µg/mL,,,,,"CN1CC[C@H](Oc2cccc(-c3cccc(CNCC[C@H]4CN(c5ccc6c(n5)NC(=O)CO6)C(=O)O4)c3)n2)C1 [Example $121, 6-[(S)-5-(2-{3-[6-((S)-1-methyl-pyrrolidin-3-yloxy)-pyridin-2-yl]-benzylamino}-ethyl)-2-oxo-oxazolidin-3-yl]-4H-pyrido[3,2-b][1,4]oxazin-3-one]"
0.25 µg/mL,0.25 µg/mL,0.5 µg/mL,0.5 µg/mL,,,,,"CN1CC(Oc2cccc(-c3cccc(CNCC[C@H]4CN(c5ccc6c(n5)NC(=O)CO6)C(=O)O4)c3)n2)C1 [Example $122, 6-[(S)-5-(2-{3-[6-(1-methyl-azetidin-3-yloxy)-pyridin-2-yl]-benzylamino}-ethyl)-2-oxo-oxazolidin-3-yl]-4H-pyrido[3,2-b][1,4]oxazin-3-one]"
0.25 µg/mL,1 µg/mL,1 µg/mL,1 µg/mL,,,,,"CN1CC[C@H]1COc1cccc(-c2cccc(CNCC[C@H]3CN(c4ccc5c(n4)NC(=O)CO5)C(=O)O3)c2)n1 [Example $123, 6-[(S)-5-(2-{3-[6-((S)-1-methyl-azetidin-2-ylmethoxy)-pyridin-2-yl]-benzylamino}-ethyl)-2-oxo-oxazolidin-3-yl]-4H-pyrido[3,2-b][1,4]oxazin-3-one]"
1 µg/mL,1 µg/mL,2 µg/mL,0.5 µg/mL,,,,,"O=C1COc2ccc(N3C[C@H](CCNCc4cccc(-c5cccc(OC[C@H]6CCN6)n5)c4)OC3=O)nc2N1 [Example $124, 6-[(S)-5-(2-{3-[6-((R)-1-azetidin-2-ylmethoxy)-pyridin-2-yl]-benzylamino}-ethyl)-2-oxo-oxazolidin-3-yl]-4H-pyrido[3,2-b][1,4]oxazin-3-one]"
0.5 µg/mL,1 µg/mL,2 µg/mL,4 µg/mL,,,,,"CN1CC[C@@H]1COc1cccc(-c2cccc(CNCC[C@H]3CN(c4ccc5c(n4)NC(=O)CO5)C(=O)O3)c2)n1 [Example $125, 6-[(S)-5-(2-{3-[6-((R)-1-methyl-azetidin-2-ylmethoxy)-pyridin-2-yl]-benzylamino}-ethyl)-2-oxo-oxazolidin-3-yl]-4H-pyrido[3,2-b][1,4]oxazin-3-one]"
